Experimental findings from patent US20110230367A1, “Amphiphilic Peptides Promoting Production of Target miRNA and Method of Regulating Production of Target miRNA” (SNU R&DB FOUNDATION, priority 2009, published 2011) are described below.

Read-outs that look alike come from different tables or passages of the source.

Assay in all cases: Dissociation constant by competitive fluorescence anisotropy with rhodamine-rev peptide probe
Assay type in all cases: binding

In one assay the target is pre-let7a-1. As to conditions: for Discrimination ratio pre-let7a-1 (in parenthesis): Kd against other RNA (HBV, IRES, other miRNAs)/Kd against target miRNA. How it is done: (§1) The binding affinity between the peptide synthesized in <Example 1> and pre-miRNA from <Example 2> were measured by fluorescence anisotropy using competitive binding method. A rev peptide with rhodamine attached at the N-terminal was used as a fluorescent probe and LS-55 luminescence spectrometer from Perkin-Elmer was use for analysis. A constant temperature of 20° C. was maintained by a water bath. The fluorescent intensity was measured by of 200 nM of rhodamine-rev peptide was measured with an excitation wavelength at 550 nm (band path 10 nm) and detection at 580 nm (band path 10 nm). The integration time […]. Each experimental value is the mean value of 5 measurements. A 20 mM of HEPES{4-(2-hydroxyethyl)-1-piperazineethanesulfonic acid} buffer (pH 7.5) containing 140 mM NaCl, 5 mM KCl and 1 mM MgCl2 was used for measuring the dissociation constant. The dissociation constant was determined according to the Mathematical Formula 1 and using Kaledia graph.
(§2) A and Ao are the fluorescence anistropy in the presence or absence of RNA, whereas ΔA is the difference between these two values. [RNA]0 and [Rh-rev]0 are initial concentrations of RNA and rev peptide binding with rhodamine.
(§3) According the method described in <Example 3>, the dissociation constant between second generation peptide and 2 pre-miRNAs synthesized from <Example 2> was determined using fluorescent polarization detection method and fluorescent probe molecule.

Another assay concerns the target pre-miR16-1. The following applies: for Discrimination ratio pre-miR16-1 (in parenthesis): Kd against other RNA/Kd against target miRNA. How it is done:
as §1, §2, §3

The target of the next assay is HBV (hairpin RNA). The following applies: Table 6. How it is done:
as §1, §2, §3

The target of a further assay is IRES (hairpin RNA). The following applies: Table 6. As for the experimental part:
as §1, §2, §3

The next assay concerns the target pre-miR24-1. The following applies: for Kd / Discrimination ratio pre-miR24-1 (in parenthesis): Table 6; for Discrimination ratio pre-miR24-1 (in parenthesis): Kd against other RNA/Kd against target miRNA. As for the experimental part:
as §1, §2, §3

Where [1] appears, read: Table 3, first generation peptides, 20° C., HEPES pH 7.5, read-out: Kd value with pre-let7a-1.
Where [2] appears, read: Table 5, second generation peptides, read-out: Kd value against pre-let7a-1.
The mark [3] stands for this setting: Table 3, first generation peptides, 20° C., HEPES pH 7.5, read-out: Kd value with pre-miR16-1.
The mark [4] stands for this setting: Table 5, second generation peptides, read-out: Kd value against pre-miR16-1.
The mark [5] stands for this setting: Table 6, read-out: Kd pre-let7a-1.
Where [6] appears, read: Table 6, read-out: Kd pre-miR16-1.

“LKKLLKLLKKLLKLAG [Peptide 1, Ac-LKKLLKLLKKLLKLAG]”: the Kd on pre-let7a-1 (setting [1]) is 17 nM; on pre-let7a-1 (setting [2]) it was 17 nM; on pre-miR16-1 (setting [3]), 12 nM; on pre-miR16-1 (setting [4]), 12 nM.
With “LKKLLKLLKKLLKWAG [Peptide 1h, Ac-LKKLLKLLKKLLKWAG]”, the “binding with pre-let7a-1” value with pre-let7a-1 is “significant increase in binding affinity”. Besides, the values for the Kd on pre-let7a-1 (setting [1]) and on pre-miR16-1 (setting [3]) were 0.11 nM and 0.4 nM, respectively. The “increase in binding affinity compared to the peptide with no tryptophan substitution (peptide 1)” value in the assay with pre-let7a-1 (pre-miRNA not named, values fit pre-let7a-1) was found to be 150 times. In addition, in the assay with pre-miR16-1, the “binding with pre-miR16-1” value is “significant increase in binding affinity”.
As for “LKKLLKLLKKLWKLAG [Peptide 1g, Ac-LKKLLKLLKKLWKLAG]”, the equilibrium dissociation constant (Kd) stood at 0.25 nM at pre-let7a-1 (setting [1]) and 0.56 nM on pre-miR16-1 (setting [3]).
For “LKKLLKLLKKLWKWAG [Peptide 2j, Ac-LKKLLKLLKKLWKWAG, 21]”, the Kd at HBV (hairpin RNA) was determined as 0.35 nM; on IRES (hairpin RNA) it was 0.85 nM; on pre-let7a-1 (setting [2]), 0.37 nM; at pre-let7a-1 (setting [5]), 0.37 nM; at pre-miR16-1 (setting [4]) it was 0.44 nM; on pre-miR16-1 (setting [6]) it was 0.44 nM. In addition, the Kd on pre-miR24-1 came to 0.27 nM. The “Discrimination ratio pre-let7a-1 (in parenthesis)” value with pre-let7a-1 (Table 6) is given as 1.0. The “Discrimination ratio pre-miR16-1 (in parenthesis)” value with pre-miR16-1 (Table 6) turned out to be 1.4. Moreover, the “Discrimination ratio pre-miR24-1 (in parenthesis)” value in the assay with pre-miR24-1 is 1.9.
With “LKKLLKLLKKWLKLAG [Peptide 1f, Ac-LKKLLKLLKKWLKLAG]”, the figures for the Kd at pre-let7a-1 (setting [1]) and at pre-miR16-1 (setting [3]) were 0.32 nM and 0.48 nM, respectively.
In the case of “LKKLLKLLKKWLKWAG [Peptide 2i, Ac-LKKLLKLLKKWLKWAG, 20]”, the Kd on HBV (hairpin RNA) was found to be 0.82 nM; at IRES (hairpin RNA) it was 1.2 nM; at pre-let7a-1 (setting [2]) it was 0.31 nM; at pre-let7a-1 (setting [5]), 0.31 nM; at pre-miR16-1 (setting [4]) it was 0.47 nM; at pre-miR16-1 (setting [6]), 0.47 nM. Moreover, on pre-miR24-1, the affinity, expressed as Kd, was 0.53 nM. Moreover, the “Discrimination ratio pre-let7a-1 (in parenthesis)” value in the assay with pre-let7a-1 (Table 6) came out at 4.4. The “Discrimination ratio pre-miR16-1 (in parenthesis)” value in the assay on pre-miR16-1 (Table 6) worked out at 1.6. Besides, the “Discrimination ratio pre-miR24-1 (in parenthesis)” value in the assay on pre-miR24-1 was 1.2.
With “LKKLLKLLKKWWKLAG [Peptide 2h, Ac-LKKLLKLLKKWWKLAG, 19]”, the Kd on HBV (hairpin RNA) came out at 5.7 nM; on IRES (hairpin RNA), 1.7 nM; on pre-let7a-1 (setting [2]), 1.5 nM; at pre-let7a-1 (setting [5]), 1.5 nM; on pre-miR16-1 (setting [4]) it was 2.6 nM; on pre-miR16-1 (setting [6]), 2.6 nM. The same sequence registered a Kd at pre-miR24-1 of 1.5 nM. Also, the “Discrimination ratio pre-let7a-1 (in parenthesis)” value in the assay on pre-let7a-1 (Table 6) amounted to 1.8. The “Discrimination ratio pre-miR16-1 (in parenthesis)” value with pre-miR16-1 (Table 6) is 1.0. Further, the “Discrimination ratio pre-miR24-1 (in parenthesis)” value in the assay with pre-miR24-1 stood at 1.9.
With “LKKLLKWLKKLLKLAG [Peptide 1d, Ac-LKKLLKWLKKLLKLAG]”, the Kd at pre-let7a-1 (setting [1]) is 0.64 nM; at pre-miR16-1 (setting [3]), 1.8 nM.
“LKKLLKWLKKLLKWAG [Peptide 2g, Ac-LKKLLKWLKKLLKWAG, 18]”: the Kd on HBV (hairpin RNA) amounted to 1 nM; on IRES (hairpin RNA) it was 1.3 nM; on pre-let7a-1 (setting [2]), 0.96 nM; on pre-let7a-1 (setting [5]) it was 0.96 nM; on pre-miR16-1 (setting [4]) it was 1.1 nM; at pre-miR16-1 (setting [6]), 1.1 nM. This sequence had a Kd on pre-miR24-1 of 0.47 nM. The “Discrimination ratio pre-let7a-1 (in parenthesis)” value in the assay with pre-let7a-1 (Table 6) is given as 0.85. Further, the “Discrimination ratio pre-miR16-1 (in parenthesis)” value with pre-miR16-1 (Table 6) came to 0.99. Further, in the assay with pre-miR24-1, the “discrimination ratio for pre-miR24-1” value is 2.3. For the same sequence, the “Discrimination ratio pre-miR24-1 (in parenthesis)” value in the assay on pre-miR24-1 is 2.3.
As to “LKKLWKLLKKLLKLAG [Peptide 1c, Ac-LKKLWKLLKKLLKLAG]”, the Kd at pre-let7a-1 (setting [1]) was found to be 0.41 nM; on pre-miR16-1 (setting [3]), 0.56 nM.
In the case of “LKKLWKLLKKLLKWAG [Peptide 2f, Ac-LKKLWKLLKKLLKWAG, 17]”, the Kd at HBV (hairpin RNA) came to 0.38 nM; at IRES (hairpin RNA), 3.8 nM; on pre-let7a-1 (setting [2]), 0.9 nM; at pre-let7a-1 (setting [5]), 0.96 nM; at pre-miR16-1 (setting [4]), 2.1 nM; on pre-miR16-1 (setting [6]), 2.1 nM. Moreover, the dissociation constant (Kd) on pre-miR24-1 stood at 2.2 nM. Moreover, in the assay with pre-let7a-1 (Table 6), the “Discrimination ratio pre-let7a-1 (in parenthesis)” value was 9.3. Besides, the “Discrimination ratio pre-miR16-1 (in parenthesis)” value with pre-miR16-1 (Table 6) is 1.2. Also, the “Discrimination ratio pre-miR24-1 (in parenthesis)” value in the assay on pre-miR24-1 came to 0.66.
Turning to “LKKWLKLLKKLLKLAG [Peptide 1b, Ac-LKKWLKLLKKLLKLAG]”, the Kd was 0.68 nM on pre-let7a-1 (setting [1]) and 1.2 nM at pre-miR16-1 (setting [3]).
For the sequence “WKKLLKLLKKLLKLAG [Peptide 1a, Ac-WKKLLKLLKKLLKLAG]”, the “binding with pre-let7a-1” value in the assay with pre-let7a-1 is “significant increase in binding affinity”. Moreover, the Kd amounted to 0.17 nM at pre-let7a-1 (setting [1]) and 0.42 nM at pre-miR16-1 (setting [3]). Further, in the assay with pre-miR16-1, the “binding with pre-miR16-1” value was “significant increase in binding affinity”.
For “WKKLLKLLKKLLKWAG [Peptide 2e, Ac-WKKLLKLLKKLLKWAG, 16]”, the Kd at HBV (hairpin RNA) stood at 0.34 nM; on IRES (hairpin RNA), 0.76 nM; on pre-let7a-1 (setting [2]) it was 0.22 nM; at pre-let7a-1 (setting [5]), 0.9 nM; at pre-miR16-1 (setting [4]), 0.28 nM; on pre-miR16-1 (setting [6]), 0.28 nM. Moreover, the affinity at pre-miR24-1, expressed as Kd, was 0.84 nM. In addition, the “Discrimination ratio pre-let7a-1 (in parenthesis)” value in the assay with pre-let7a-1 (Table 6) is on record as 1.7. Also, in the assay on pre-miR16-1 (Table 6), the “Discrimination ratio pre-miR16-1 (in parenthesis)” value was 2.3. The “discrimination ratio for pre-miR16-1” value in the assay on pre-miR16-1 (against other RNAs) worked out at 2.3. Also, the “Discrimination ratio pre-miR24-1 (in parenthesis)” value with pre-miR24-1 worked out at 0.50.
Regarding “WKKLLKLLKKLWKLAG [Peptide 2d, Ac-WKKLLKLLKKLWKLAG, 15]”, the Kd at HBV (hairpin RNA) was 0.79 nM; at IRES (hairpin RNA) it was 0.77 nM; on pre-let7a-1 (setting [2]), 0.25 nM; on pre-let7a-1 (setting [5]), 0.22 nM; at pre-miR16-1 (setting [4]) it was 0.64 nM; on pre-miR16-1 (setting [6]) it was 0.64 nM. For the same sequence, binding on pre-miR24-1 was characterised by a dissociation constant (Kd) of 0.67 nM. Further, the “Discrimination ratio pre-let7a-1 (in parenthesis)” value in the assay with pre-let7a-1 (Table 6) was determined as 1.2. For the same sequence, in the assay on pre-miR16-1 (Table 6), the “Discrimination ratio pre-miR16-1 (in parenthesis)” value was found to be 1.2. Also, the “Discrimination ratio pre-miR24-1 (in parenthesis)” value in the assay with pre-miR24-1 came out at 1.0.
For “WKKLWKLLKKLLKLAG [Peptide 2a, Ac-WKKLWKLLKKLLKLAG, 12]”, the Kd is 0.77 nM on HBV (hairpin RNA); 0.9 nM on IRES (hairpin RNA); 0.23 nM on pre-let7a-1 (setting [2]); 0.23 nM at pre-let7a-1 (setting [5]); 0.32 nM at pre-miR16-1 (setting [4]); 0.32 nM at pre-miR16-1 (setting [6]). The same sequence gave a Kd at pre-miR24-1 of 0.82 nM. Further, in the assay on pre-let7a-1 (Table 6), the “Discrimination ratio pre-let7a-1 (in parenthesis)” value was found to be 2.8. In addition, in the assay with pre-miR16-1 (Table 6), the “Discrimination ratio pre-miR16-1 (in parenthesis)” value was 2.6. Also, the “Discrimination ratio pre-miR24-1 (in parenthesis)” value with pre-miR24-1 worked out at 0.66.

What is called Kd is the constant that tells how readily two partners part at equilibrium.
